According to patent publication CN109762015A, “一种阿维菌素B2a磷酸化修饰物及其制备方法和应用” (HEBEI MEIHE PHARMACEUTICAL Co Ltd, priority 2019, dated 2019):

Key:
[1] = system: other diseases and pests and non-target organisms (其他病虫害及非靶标生物); assay: Safety evaluation: effect on other diseases/pests and non-target organisms (Example 7); assay type: in vivo; details: 0.25 g/plant, hole application at transplanting
[2] = system: plants (植株); details: background statement; cited from earlier work
[3] = system: watermelon (西瓜); assay: Watermelon yield after treatment (Example 8); assay type: in vivo; details: 0.25 g/plant at transplanting
[4] = system: root-knot nematode of watermelon (西瓜根结线虫); assay: Field trial: control of watermelon root-knot nematode (Example 7); assay type: in vivo; details: 0.25 g/plant, hole application at transplanting; assessed 2 d before harvest, five-point sampling, 10 plants per field

## CC[C@H](C)[C@H]1O[C@@]2(C[C@@H]3C[C@@H](C/C=C(\C)[C@@H](O[C@H]4C[C@H](OC)[C@@H](O[C@H]5C[C@H](OC)[C@@H](O)[C@H](C)O5)[C@H](C)O4)[C@@H](C)/C=C/C=C4\CO[C@@H]5[C@H](O)C(C)=C[C@@H](C(=O)O3)[C@]45O)O2)C[C@H](O)[C@@H]1C [阿维菌素B2a]
[1]
  effect on other diseases/pests and non-target organisms: 无不良影响
[2]
  phytotoxicity in individual plants: 会使个别植株出现黄化、烧根等现象
[3]; 3 watermelons per field, blank field 5.98
  single fruit weight: 7.01 kg
[3]; converted from weighing 3 watermelons per field, blank field 38967.4
  converted yield: 47784.9 kg·hm-2
[3]; versus blank field
  growth rate relative to blank field (yield increase): 22.62%
[4]
  control effect: 83.32%
